Measurements taken from US7452704B2, “Dehydrogenase and a gene encoding the same” (priority 2002, dated 2008).

Tests used:
Assay type in all cases: biochemical, Pseudomonas putida ATCC 12633
[1] = molecular target: dehydrogenase represented by the amino acid sequence of SEQ ID No. 1 (Pseudomonas putida, UniProt Q5FB93); assay: Inhibition of dehydrogenase activity by divalent heavy metals; settings: 0.01 mM
[2] = molecular target: T1, N-methyl-L-phenylalanine dehydrogenase (Pseudomonas putida, UniProt Q5FB93); assay: Reverse reaction with NAD as coenzyme (Example 13); settings: N-methyl-L-alanine 50 mM, NAD 10 mM, pH 10.0, 37° C.
T1 construct: made in house
Procedure: (§1) Purified form of the present enzyme was obtained from cloned Escherichia coli cells in the same way as in Example 5.
Enzyme activity was measured by adding thereto N-methyl-L-alanine to a final concentration of 50 mM, NAD to a final concentration of 10 mM, and bis-Tris propane buffer (pH 10.0) to a final concentration of 100 mM, and examining the change in absorbance of the reaction mixture at 340 nm. The reaction temperature during measurement was 37° C. The activity was 7.8×10^−3 (u/mg of protein).

[3] = molecular target: T1, N-methyl-L-phenylalanine dehydrogenase; assay: Substrate specificity for amines with NADPH as coenzyme (Example 14)
Procedure: as §1
Enzyme activity was measured by adding thereto various amines shown in Table 5 to a final concentration of 60 mM, NADPH to a final concentration of 0.2 mM, and β-phenylpyruvic acid to a final concentration of 10 mM, and examining the change in absorbance of the reaction solution at 340 nm. The reaction temperature during measurement was 37° C.

[4] = molecular target: T1, N-methyl-L-phenylalanine dehydrogenase; assay: Substrate specificity for keto acids with NADH as coenzyme (Example 11); settings: keto acid 40 mM (β-phenylpyruvic acid 30 mM), NADH 0.3 mM, methylamine 180 mM, pH 10.0, 37° C.; pyruvic acid = 100%
Procedure: as §1
Enzyme activity was measured by adding thereto various keto acids shown in Table 4 to a final concentration of 40 mM (except for β-phenylpyruvic acid, which was 30 mM), NADH to a final concentration of 0.3 mM, bis-Tris propane buffer (pH 10.0) to a final concentration of 100 mM, and methylamine to a final concentration of 180 mM, and examining the change in absorbance of the reaction solution at 340 nm. The reaction temperature during measurement was 37° C.

[5] = molecular target: T1, N-methyl-L-phenylalanine dehydrogenase; assay: Substrate specificity for keto acids with NADPH as coenzyme (Example 6); settings: keto acid 10 mM, NADPH 0.2 mM, methylamine pH 10 60 mM, 37° C.; β-phenylpyruvic acid = 100%
Procedure: as §1
Enzyme activity was measured by adding thereto various keto acids shown in Table 3 to a final concentration of 10 mM, NADPH to a final concentration of 0.2 mM, and methylamine adjusted to pH 10 with sulfuric acid to a final concentration of 60 mM, and examining the change in absorbance of the reaction mixture at 340 nm. The reaction temperature during measurement was 37° C. Defining the activity of the enzyme when β-phenylpyruvic acid was used as the substrate as 100%, the results are shown in Table 3 for relative activity.

[6] = molecular target: T2, N-methyl-L-phenylalanine dehydrogenase (Pseudomonas putida, UniProt Q5FB93); assay: Measurement of optimal pH when NADH is the coenzyme (Example 12); settings: pyruvic acid 80 mM, NADH 0.3 mM, methylamine 180 mM, 37° C.
T2 construct: made in house
T2 sequence (Q5FB93 whole entry, looked up): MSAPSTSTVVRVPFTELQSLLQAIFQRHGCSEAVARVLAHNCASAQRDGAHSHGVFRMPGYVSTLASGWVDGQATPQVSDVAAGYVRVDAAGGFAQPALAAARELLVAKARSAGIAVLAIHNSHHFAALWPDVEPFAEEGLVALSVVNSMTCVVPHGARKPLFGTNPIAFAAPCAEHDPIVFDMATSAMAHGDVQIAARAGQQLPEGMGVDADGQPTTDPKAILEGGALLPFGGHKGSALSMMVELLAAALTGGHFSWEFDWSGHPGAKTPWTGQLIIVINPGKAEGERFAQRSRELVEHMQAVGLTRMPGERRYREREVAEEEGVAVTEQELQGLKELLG
Procedure: as §1
Enzyme activity was measured by adding thereto pyruvic acid to a final concentration of 80 mM, NADH to a final concentration of 0.3 mM, and methylamine adjusted to various pH values with sulfuric acid to a final concentration of 180 mM, and examining the change in absorbance of the reaction mixture at 340 nm. The reaction temperature during measurement was 37° C. […] The optimal pH of the reaction was 9.5.

[7] = molecular target: T2, N-methyl-L-phenylalanine dehydrogenase; assay: Thermal stability of the enzyme (Example 10)
Procedure: The purified enzyme obtained in Example 5 was left at 25° C., 30° C., 35° C., 40° C., 45° C., and 50° C. for 30 minutes, and then measured for activity as in Example 7. The results are shown in FIG. 4 as remaining activity, with the activity of the untreated enzyme (left in ice) defined as 100.

present dehydrogenase = molecular target: T3, present dehydrogenase (Pseudomonas putida, UniProt Q5FB93); assay: Activity of the present dehydrogenase in crude extract of co-expressing Escherichia coli (Example 18); settings: crude cellular extract; pH 10.0, 0.2 mM NADPH, 30 mM methylamine, 10 mM sodium pyruvate, 30° C.
T3 construct: made in house; host or cells: Escherichia coli BL21 (DE3) carrying pENMadh and pSTV28-GDH; crude cellular extract
T3 sequence (Q5FB93 1-341): T2 sequence (Q5FB93 whole entry, looked up)
Procedure: Activity of the present dehydrogenase was measured in a reaction mixture containing 100 mM bis-trispropane buffer (pH 10.0), 0.2 mM NADPH, 30 mM methylamine, and 10 mM sodium pyruvate at 30° C. 1 U was defined as the amount of the enzyme capable of oxidizing 1 μmol of NADPH per minute under the above reaction conditions.

[8] = molecular target: T2, N-methyl-L-phenylalanine dehydrogenase; assay: Optimal working temperature for the enzyme (Example 8); settings: phenylpyruvic acid and methylamine as substrates, pH 10; listed as dehydrogenase represented by the amino acid sequence of SEQ ID No. 1
Procedure: Activity was measured using the same reaction conditions as in Example 6 and with methylamine-sulfuric acid (pH 10), except that the temperature was varied. The optimal temperature was 30 to 40° C.

[9] = molecular target: T2, N-methyl-L-phenylalanine dehydrogenase; assay: Measurement of optimal pH, NADPH (Example 7); settings: phenylpyruvic acid and methylamine as substrates, 37° C.
Procedure: as §1
Enzyme activity was measured by adding thereto β-phenylpyruvic acid to a final concentration of 10 mM, NADPH to a final concentration of 0.2 mM, and methylamine adjusted to various pH values with sulfuric acid to a final concentration of 60 mM, and examining the change in absorbance of the reaction solution at 340 nm. The reaction temperature during measurement was 37° C. Defining the amount of enzyme that react with 1 micromole of β-phenylpyruvic acid per minute as 1 unit, the results are shown in FIG. 1 for the relationship between the number of units per protein amount (u/mg) and pH. The optimal pH of the reaction was 10.0.

[10] = amine 60 mM, NADPH 0.2 mM, β-phenylpyruvic acid 10 mM, 37° C., methylamine = 100%

Molecule: [Cl][Hg][Cl] [mercury chloride (HgCl2), mercury chloride]
- effect on dehydrogenase activity [1]: inhibited

Molecule: CN[C@@H](C)C(=O)O [N-methyl-L-alanine]
- activity (reverse reaction) [2]: 7.8×10^−3 u/mg of protein

Molecule: NC1CCCCC1 [cyclohexanamine]
- Relative activity [3, 10]: 1.3%

Molecule: O=C(O)C(=O)CF [β-fluoropyruvic acid]
- Relative activity [4]: 4.2%
- Relative activity [5]: 90%

Molecule: CCCCCCC(=O)C(=O)O [2-ketooctanoic acid]
- Relative activity [5]: 25%

Molecule: O=C(O)C(=O)Cc1ccccc1 [phenylpyruvic acid]
- Relative activity [4]: 0%
- Relative activity [5]: 100%

Molecule: CCCC(=O)C(=O)O [2-keto-n-valeric acid]
- Relative activity [4]: 7.5%
- Relative activity [5]: 53%

Molecule: N [ammonium]
- Relative activity [3]: 0%

Molecule: CCC(=O)C(=O)O [2-ketobutyric acid]
- Relative activity [4]: 15%
- Relative activity [5]: 98%

Molecule: CCCCC(=O)C(=O)O [2-ketohexanoic acid]
- Relative activity [4]: 20%
- Relative activity [5]: 174%

Molecule: CC(=O)C(=O)O [pyruvic acid]
- Relative activity [4]: 100%
- Relative activity [5]: 334%

Molecule: [Cl][Cu][Cl] [copper chloride (CuCl2), copper chloride]
- effect on dehydrogenase activity [1]: inhibited

Molecule: CCN [ethylamine]
- Relative activity [3, 10]: 1.5%

Molecule: CCCN [N-propylamine]
- Relative activity [3, 10]: 1.1%

Molecule: CC(C)N [isopropylamine]
- Relative activity [3, 10]: 1.5%

Molecule: CNC [dimethylamine]
- Relative activity [3, 10]: 1.4%

Molecule: CN [methylamine]
- Relative activity [3, 10]: 100%

B1: present enzyme: novel dehydrogenase from Pseudomonas putida ATCC 12633, polypeptide of SEQ ID No. 1 (protein, listed as Pseudomonas putida)
chain: T2 sequence (Q5FB93 whole entry, looked up)
- optimal pH [6]: 9.5
- remaining activity ([7]; left 30 minutes, up to 30° C., untreated enzyme = 100): 100%
- temperature of thermal stability ([7]; treated at optimal pH (pH 10) for 30 minutes): < 30 °C
- activity of the present dehydrogenase (present dehydrogenase): 6.6 U/mg of protein
- optimal temperature [8]: around 35 °C
- optimal pH [9]: 10.0
- optimal pH ([9]; listed as dehydrogenase of the present invention): around 10
